Experimental findings from patent EP4813993A1, “COMPOUND, PREPARATION METHOD THEREFOR, AND USE THEREOF” (Sichuan Kelun Pharmaceutical Research Institute Co., Ltd., priority 2023, dated 2025) are described below.

One series concerns the target T1, Nav1.8 channels (Homo sapiens, UniProt Q9Y5Y9).
T1 construct: expressed in transfected cells
Put plainly: Manual patch-clamp, current of stably overexpressed Nav1.8 channels (resting state voltage program). The settings on record: for inhibition at 0.001 µM: concentration of 1 nM; for inhibition at 0.001 µM / inhibition at 0.01 µM: read-out: Inhibition rate %. Type of series: cell-based. In outline:
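Whole-cell manual patch clamp on cells stably overexpressing Nav1.8, held at -120 mV and stepped to 0 mV for 50 ms every 20 s (resting-state protocol). Compounds were perfused in ascending concentrations, each for 5 min or until stable; block of peak current was calculated at steady state.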
Background: The patch-clamp technique gives a direct electrical read-out from membranes.

Series [1] is described as follows: Pharmacokinetic study in ICR mice. Type of series: in vivo. The settings on record: male, mouse, plasma. On the procedure: Experimental Example 3: Pharmacokinetic study of compounds in ICR mice
Experimental animals: ICR mice, male, 6-8 weeks old.
Compound preparation: 5% (final preparation volume) of DMSO was added to dissolve the test compound, and then 10% (final preparation volume) of Cremophor EL and 85% Saline were sequentially added.
The injection group was given free access to food and water. The oral group was fasted overnight (> 12 h) with free access to water, and was fed 4 h after administration. Blood samples were collected from the jugular vein of ICR mice at the following time points: 5 min, 15 min, 0.5 h, 1 h, 2 h, 4 h, 8 h, and 24 h after injection administration; 15 min, 0.5 h, 1 h, 2 h, 4 h, 6 h, 8 h, and 24 h after oral administration. The collected blood samples were anticoagulated, placed in an ice bath, and then centrifuged for 5 min to separate plasma. The plasma was stored at -70 °C for analysis.
Sample test: The concentrations of the designated compound drugs in plasma were determined by the LC-MS/MS method; the main pharmacokinetic parameters were calculated using the Winnolin 8.3 non-compartmental model. Pharmacokinetic test results of some compounds of the present disclosure in ICR mice

The next series deals with formalin pain model. Briefly: Rat formalin pain model. It is filed as in vivo, SD rats. The method, then: Experimental Example 10: Pharmacodynamic effect study of compounds in rat formalin pain model
Experimental animals: SD rats, male, 180-200 g.
Compound preparation: 5% (final preparation volume) of DMSO was added to dissolve the test compound, and then 10% (final preparation volume) of Cremophor EL and 85% Saline were sequentially added; an appropriate amount of Etoricoxib was weighed, 5% (final preparation volume) of DMSO was added to dissolve the test compound, and then 5% (final preparation volume) of HS-15 and 90% Saline were sequentially added; the tramadol injection was diluted with normal saline to the desired concentration.
Each group consisted of 10 animals, and 50 µL of a 5% formalin solution was injected using a microsyringe into the right plantar region.
2. Administration and test
Based on different pharmacokinetic properties of the drugs, the administration was performed at 0 min, 60 min, and 120 min before modeling. After injection of the formalin, the number of pain responses in the rats was observed. […] Spontaneous pain responses were observed once every 5 min, and the number of pain responses in the rats within 1 min was counted, with a total observation duration of 60 min. Inhibition rate = (number of pain responses in control group - number of pain responses in administration group)/number of pain responses in control group × 100%.
Table 12. Administration information of compounds of the present disclosure in rat formalin model

T1 sequence (Q9Y5Y9 whole entry): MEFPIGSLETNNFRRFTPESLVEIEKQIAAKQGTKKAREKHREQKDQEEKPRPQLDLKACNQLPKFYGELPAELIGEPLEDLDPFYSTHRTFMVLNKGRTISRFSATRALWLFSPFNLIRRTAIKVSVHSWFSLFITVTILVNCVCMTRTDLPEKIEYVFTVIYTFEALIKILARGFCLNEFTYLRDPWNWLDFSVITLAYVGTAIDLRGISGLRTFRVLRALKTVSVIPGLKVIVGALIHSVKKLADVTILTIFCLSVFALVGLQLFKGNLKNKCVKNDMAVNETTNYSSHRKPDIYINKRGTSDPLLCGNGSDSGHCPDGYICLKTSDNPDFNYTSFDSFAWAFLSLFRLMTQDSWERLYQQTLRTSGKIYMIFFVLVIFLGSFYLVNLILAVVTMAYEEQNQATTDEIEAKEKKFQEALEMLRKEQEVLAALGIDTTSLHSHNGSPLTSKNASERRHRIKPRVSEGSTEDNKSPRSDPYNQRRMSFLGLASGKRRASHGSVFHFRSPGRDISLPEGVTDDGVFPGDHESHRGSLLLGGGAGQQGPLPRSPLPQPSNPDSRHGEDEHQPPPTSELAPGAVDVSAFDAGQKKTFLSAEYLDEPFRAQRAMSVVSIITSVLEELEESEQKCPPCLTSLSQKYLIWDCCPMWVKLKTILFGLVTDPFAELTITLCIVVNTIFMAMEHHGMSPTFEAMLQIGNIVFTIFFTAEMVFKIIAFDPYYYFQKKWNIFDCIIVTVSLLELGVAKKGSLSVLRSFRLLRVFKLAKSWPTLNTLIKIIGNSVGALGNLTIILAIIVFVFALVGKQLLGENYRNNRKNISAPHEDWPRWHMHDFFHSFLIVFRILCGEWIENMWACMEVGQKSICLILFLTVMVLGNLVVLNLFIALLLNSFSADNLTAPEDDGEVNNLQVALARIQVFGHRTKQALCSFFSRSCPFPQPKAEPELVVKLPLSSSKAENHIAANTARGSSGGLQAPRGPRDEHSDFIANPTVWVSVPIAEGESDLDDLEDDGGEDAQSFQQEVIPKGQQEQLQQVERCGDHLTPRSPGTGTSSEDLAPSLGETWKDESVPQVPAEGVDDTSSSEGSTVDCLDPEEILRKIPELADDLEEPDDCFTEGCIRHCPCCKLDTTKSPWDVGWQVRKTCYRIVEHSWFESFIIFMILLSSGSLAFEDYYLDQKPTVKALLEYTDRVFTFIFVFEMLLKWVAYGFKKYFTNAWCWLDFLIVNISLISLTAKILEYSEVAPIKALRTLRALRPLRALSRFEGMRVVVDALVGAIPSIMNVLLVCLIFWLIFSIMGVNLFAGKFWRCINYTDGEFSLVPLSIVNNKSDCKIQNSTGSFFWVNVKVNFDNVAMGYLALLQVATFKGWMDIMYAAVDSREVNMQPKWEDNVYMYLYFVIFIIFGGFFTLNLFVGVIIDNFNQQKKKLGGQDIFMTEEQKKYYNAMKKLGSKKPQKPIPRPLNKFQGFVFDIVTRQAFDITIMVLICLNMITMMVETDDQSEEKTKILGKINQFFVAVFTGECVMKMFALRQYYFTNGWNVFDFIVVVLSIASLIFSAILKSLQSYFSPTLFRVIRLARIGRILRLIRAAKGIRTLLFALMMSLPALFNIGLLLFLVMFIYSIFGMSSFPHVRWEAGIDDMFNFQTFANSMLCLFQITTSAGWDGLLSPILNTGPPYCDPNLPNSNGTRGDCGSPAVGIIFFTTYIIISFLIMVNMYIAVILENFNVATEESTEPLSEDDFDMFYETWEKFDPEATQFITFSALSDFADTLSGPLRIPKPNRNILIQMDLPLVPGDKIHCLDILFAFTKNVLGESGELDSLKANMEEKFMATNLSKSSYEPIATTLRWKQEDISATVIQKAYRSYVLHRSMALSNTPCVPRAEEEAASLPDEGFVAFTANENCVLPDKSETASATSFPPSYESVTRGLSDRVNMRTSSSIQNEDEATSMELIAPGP

As a reminder, the IC50 is the concentration that gives 50% inhibition. Low values mean higher potency, high ones lower potency. For orientation: AUC(0-inf) means total exposure, with the tail of the curve extrapolated. As to `COc1c([C@@H]2C[C@](C)(C(F)(F)F)S[C@H]2C(=O)Nc2ccc(F)c(OS(N)(=O)=O)c2)ccc(F)c1F` [a-32-A], at Nav1.8 channels, the IC50 was determined as 100 pM. For the same compound, the AUC(0-inf) stood at 22900 ng·h/mL in series [1] (Oral administration, 10 mg/kg) and 7390 ng·h/mL in series [1] (iv, Injection (i.v.), 2 mg/kg).

As to `COc1cccc(C2(O)CCCCC2CN(C)C)c1` (stereo not shown) [Tramadol], in the series on formalin pain model (SD rats, 10 mg/kg i.v. immediately before 5% formalin, 0 min, Mean + SD, n = 10), the “Number of pain responses 0 min” value came to 31.9±15.0. In addition, the “Number of pain responses 10 min” value in the series on formalin pain model (SD rats, 10 mg/kg i.v. immediately before 5% formalin, 10 min, Mean + SD, n = 10) is recorded as 1.9±3.0. The “Number of pain responses 15 min” value in the series on formalin pain model (SD rats, 10 mg/kg i.v. immediately before 5% formalin, 15 min, Mean + SD, n = 10) is 4.1±4.4. For the same compound, in the series on formalin pain model (SD rats, 10 mg/kg i.v. immediately before 5% formalin, 30 min, Mean + SD, n = 10), the “Number of pain responses 30 min” value was 12.8±6.7. In addition, in the series with formalin pain model (SD rats, 10 mg/kg i.v. immediately before 5% formalin, 40 min, Mean + SD, n = 10), the “Number of pain responses 40 min” value is on record as 13.2±8.1. Moreover, in the series with formalin pain model (SD rats, 10 mg/kg i.v. immediately before 5% formalin, 50 min, Mean + SD, n = 10), the “Number of pain responses 50 min” value turned out to be 8.6±3.6. Further, the “Number of pain responses 60 min” value in the series on formalin pain model (SD rats, 10 mg/kg i.v. immediately before 5% formalin, 60 min, Mean + SD, n = 10) is recorded as 9.3±5.1. The “analgesic activity in the first and second phases” value in the series on formalin pain model (rat formalin pain model, first phase immediately after injection, second phase about 15-20 min after) is “superior analgesic effects in the first and second phases, respectively”.

As a reminder, the inhibition is the change of the read-out against control, counted positive when it falls. As for `C=CC(=O)Nc1cc(NC(=O)[C@@H]2S[C@@](C)(C(F)(F)F)C[C@H]2c2ccc(F)c(F)c2OC)ccn1` [Compound 252-A, (2R,3S,5R)-N-(2-acrylamidopyridin-4-yl)-3-(3,4-difluoro-2-methoxyphenyl)-5-methyl-5-(trifluoromethyl)tetrahydrothiophene-2-carboxamide], the inhibition at 0.001 µM on Nav1.8 channels stood at 62.7%.

As to `COc1c([C@@H]2C[C@](C)(C(F)(F)F)S[C@H]2C(=O)Nc2ccc(N)c(S(N)(=O)=O)c2)ccc(F)c1F` [Compound 249-A, (2R,3S,5R)-N-(4-amino-3-sulfamoylphenyl)-3-(3,4-difluoro-2-methoxyphenyl)-5-methyl-5-(trifluoromethyl)tetrahydrothiophene-2-carboxamide], the inhibition at 0.001 µM on Nav1.8 channels is 81.6%.

As to `COc1c([C@@H]2C[C@](C)(C(F)(F)F)S[C@H]2C(=O)Nc2cccc(NS(N)(=O)=O)c2)ccc(F)c1F` [a-18-A, (2R,3S,5R)-3-(3,4-difluoro-2-methoxyphenyl)-5-methyl-N-(3-(sulfamoylamino)phenyl)-5-(trifluoromethyl)tetrahydrothiophene-2-carboxamide], the inhibition at 0.01 µM on Nav1.8 channels (concentration of 10 nM) worked out at 86.3%.

Regarding `COc1c([C@@H]2C[C@](C)(C(F)(F)F)S[C@H]2C(=O)Nc2ccnc(C3(C#N)CC3)c2)ccc(F)c1F` [a-73-A, (2R,3S,5R)-N-(2-(1-cyanocyclopropyl)pyridin-4-yl)-3-(3,4-difluoro-2-methoxyphenyl)-5-methyl-5-(trifluoromethyl)tetrahydrothiophene-2-carboxamide], the inhibition at 0.001 µM on Nav1.8 channels amounted to 58.8%.

In turn, `COc1c(C2CC(C)(C)SC2C(=O)Nc2ccnc(C(N)=O)c2)ccc(F)c1F` (stereo not shown) [Compound 134-A, 4-(3-(3,4-difluoro-2-methoxyphenyl)-5,5-dimethyltetrahydrothiophene-2-carboxamido)picolinamide] yielded an Inhibition rate (%) on Nav1.8 channels (concentration of 10 nM, 0.01 µM) of 87.78%.

On to `COc1c(C2CC(C)(C(F)(F)F)SC2C(=O)Nc2ccc3c(c2)S(=O)(=O)N=CN3)ccc(F)c1F` (stereo not shown) [a-28-A, 7-(3-(3,4-difluoro-2-methoxyphenyl)-5-methyl-5-(trifluoromethyl)tetrahydrothiophene-2-carboxamido)-4H-benzo[e][1,2,4]thiadiazine-1,1-dioxide], for which, at Nav1.8 channels (concentration of 10 nM), the inhibition at 0.01 µM came to 80.6%.

As for `COc1c(C2CC(C)(C(F)(F)F)SC2C(=O)Nc2ccnc(NO)c2)ccc(F)c1F` (stereo not shown) [a-16, (4-(3-(3,4-difluoro-2-methoxyphenyl)-5-methyl-5-(trifluoromethyl)tetrahydrothiophene-2-carboxamido)-2-hydroxylamine)pyridine], the inhibition at 0.01 µM at Nav1.8 channels (concentration of 10 nM) is 92.3%.

On to `COc1c([C@@H]2C[C@](C)(C(F)(F)F)S[C@H]2C(=O)Nc2cccc(-c3ncon3)c2)ccc(F)c1F` [a-42-A, (2R,3S,5R)-N-(3-(1,2,4-oxadiazol-3-yl)phenyl)-3-(3,4-difluoro-2-methoxyphenyl)-5-methyl-5-(trifluoromethyl)tetrahydrothiophene-2-carboxamide], for which, at Nav1.8 channels, the inhibition at 0.001 µM stood at 42%.

For the compound `COc1c(C2CC(C)(C(F)(F)F)SC2C(=O)Nc2ccn(C)c(=O)c2)ccc(F)c1F` (stereo not shown) [Compound 172, 3-(3,4-difluoro-2-methoxyphenyl)-5-methyl-N-(1-methyl-2-oxo-1,2-dihydropyridin-4-yl)-5-(trifluoromethyl)tetrahydrothiophene-2-carboxamide], at Nav1.8 channels (concentration of 10 nM), the inhibition at 0.01 µM came to 86.5%.

As to `COc1c(C2CC(C)(C(F)(F)F)SC2C(=O)Nc2ccc3nnnn3c2)ccc(F)c1F` (stereo not shown) [Compound 202, 3-(3,4-difluoro-2-methoxyphenyl)-5-methyl-N-(tetrazolo[1,5-a]pyridin-6-yl)-5-(trifluoromethyl)tetrahydrothiophene-2-carboxamide], the inhibition at 0.001 µM on Nav1.8 channels amounted to 81%.

In the case of `COc1c([C@@H]2C[C@](C)(C(F)(F)F)S[C@H]2C(=O)N(O)c2ccnc(-c3ncon3)c2)ccc(F)c1F` [a-46-A, (2R,3S,5R)-N-(2-(1,2,4-oxadiazol-3-yl)pyridin-4-yl)-3-(3,4-difluoro-2-methoxyphenyl)-N-hydroxy-5-methyl-5-(trifluoromethyl)tetrahydrothiophene-2-carboxamide], the inhibition at 0.001 µM at Nav1.8 channels is 46.7%.

For `COc1c([C@@H]2C[C@](C)(C(F)(F)F)S[C@H]2C(=O)Nc2cn(S(=O)(=O)C3CC3)nc2C)ccc(F)c1F` [a-21-A, (2R,3S,5R)-N-(1-(cyclopropylsulfonyl)-3-methyl-1H-pyrazol-4-yl)-3-(3,4-difluoro-2-methoxyphenyl)-5-methyl-5-(trifluoromethyl)tetrahydrothiophene-2-carboxamide], the inhibition at 0.001 µM on Nav1.8 channels worked out at 84.6%.

On to `COc1c([C@@H]2C[C@](C)(C(F)(F)F)S[C@H]2C(=O)Nc2ccnc(C(F)F)c2)ccc(F)c1F` [Compound 244-A, (2R,3S,5R)-3-(3,4-difluoro-2-methoxyphenyl)-N-(2-(difluoromethyl)pyridin-4-yl)-5-methyl-5-(trifluoromethyl)tetrahydrothiophene-2-carboxamide], for which the inhibition at 0.001 µM on Nav1.8 channels was 87.8%.

Regarding `COc1c(C2CC(C)(C)SC2C(=O)Nc2ccnc(C(N)=O)c2)ccc(F)c1F` (stereo not shown) [Compound 134, 4-(3-(3,4-difluoro-2-methoxyphenyl)-5,5-dimethyltetrahydrothiophene-2-carboxamido)picolinamide], the inhibition at 0.01 µM on Nav1.8 channels (concentration of 10 nM) came to 76.5%.

`COc1c([C@@H]2C[C@](C)(C(F)(F)F)S[C@H]2C(=O)Nc2ccc3c(c2)B(O)OC3)ccc(F)c1F` [Compound 31-A, (2R,3S,5R)-3-(3,4-difluoro-2-methoxyphenyl)-N-(1-hydroxy-1,3-dihydrobenzo[c][1,2]oxaborol-6-yl)-5-methyl-5-(trifluoromethyl)tetrahydrothiophene-2-carboxamide]: the inhibition at 0.01 µM on Nav1.8 channels (concentration of 10 nM) worked out at 84.7%.

In the case of `[2H][C@@]1(C(=O)Nc2ccnc(C(N)=O)c2)S[C@@](C)(C(F)(F)F)C[C@H]1c1ccc(F)c(F)c1OC` [Compound 140-A, 4-((2R,3S,5R)-3-(3,4-difluoro-2-methoxyphenyl)-5-methyl-5-(trifluoromethyl)tetrahydrothiophene-2-carboxamido-2-d)picolinamide], the inhibition at 0.01 µM on Nav1.8 channels (concentration of 10 nM) is 96.2%.

With `COc1c(C2CC(C)(C(F)(F)F)SC2C(=O)Nc2ccc(NC(=O)CN=[N+]=[N-])cc2)ccc(F)c1F` (stereo not shown) [a-75-A, N-(4-(2-azidoacetamido)phenyl)-3-(3,4-difluoro-2-methoxyphenyl)-5-methyl-5-(trifluoromethyl)tetrahydrothiophene-2-carboxamide], on Nav1.8 channels, the inhibition at 0.001 µM amounted to 55.2%.
